According to patent US9545413B2, “Methods of forming ciclopirox or derivatives thereof in a subject by administration of prodrug” (The University of Kansas, priority 2010, dated 2017):

Tests used:
[1] = system: NMIBC and MIBC cell lines; experiment: Anticancer activity in bladder cancer cell lines; type: cell-based
Text: (§1) Bladder cancer presents as two diseases, NMIBC and muscle invasive bladder cancer (MIBC). Approximately three-fourths of newly diagnosed bladder cancer patients present with NMIBC. NMIBC, as it invades into bladder muscle, becomes MIBC. MIBC often metastasizes, requiring systemically administered chemotherapy agents. […] The ciclopirox from ciclopirox-POM prodrug delivery inhibits cell proliferation, colony formation, and spheroid formation in well characterized NMIBC and MIBC cell lines. Although that ciclopirox's fungicidal activity is mediated through its ability to chelate iron, and interrupt iron-dependent intracellular processes, ciclopirox in vitro anti-cancer activity in independent of commercially available iron chelators. […] Accordingly, ciclopirox-POM prodrug can be used in treatment of all forms of bladder cancer, and in cancer stem cells of many different cancers where the Notch signaling pathway is active.

[2] = system: Notch-1 signaling pathway; experiment: Inhibition of Notch-1 signaling; type: cell-based; conditions: bladder cancer
Text: The prodrug converts to the active ciclopirox compound that effectively suppresses stem cells in bladder cancer and specifically targets the Notch-1 signaling pathway. […] Suppressing Notch is a significant activity for the compound to inhibit bladder and other cancers where Notch signaling is active (e.g. colon cancer, osteosarcoma).
as §1

Cc1cc(C2CCCCC2)n(O)c(=O)c1 [ciclopirox, 6-cyclohexyl-1-hydroxy-4-methylpyridin-2(1H)-one]
inhibits: Cell proliferation [1] | Colony formation [1] | Spheroid formation [1] | Notch-1 signaling pathway [2]
